Assay: xn = mol fraction of the nth substance listed

CC(=O)[O-].CC[n+]1ccn(C)c1 + CCO + O
viscosity [mPa·s], 101 kPa
Details | 298.15 K | 313.15 K | 328.15 K | 343.15 K
x2 = 0.1044, x3 = 0.8465 | 3.75 | 2.34 | 1.6 | 1.15
x2 = 0.1179, x3 = 0.7408 | 9.38 | 5.57 | 3.58 | 2.49
x2 = 0.2002, x3 = 0.3044 | 31.9 | 18.16 | 11.45 | 7.86
x2 = 0.2242, x3 = 0.3101 | 28 | 16.28 | 10.41 | 7.22
x2 = 0.2489, x3 = 0.6021 | 8.23 | 5.06 | – | –
x2 = 0.2635, x3 = 0.6879 | 3.8 | 2.41 | 1.64 | 1.19
x2 = 0.2995, x3 = 0.4047 | 14.14 | 8.83 | 5.91 | 4.2
x2 = 0.4124, x3 = 0.1068 | 20.57 | 12.7 | 8.57 | 6.09
x2 = 0.463, x3 = 0.2523 | 10.07 | 6.66 | – | –
x2 = 0.4916, x3 = 0.4053 | 4.47 | 2.99 | – | –
x2 = 0.5914, x3 = 0.1068 | 8.43 | – | – | –
x2 = 0.7052, x3 = 0.1967 | 3.19 | – | – | –

CC[S+](CC)CCOCC[S+](CC)CC.O=S(=O)([N-]S(=O)(=O)C(F)(F)F)C(F)(F)F.O=S(=O)([N-]S(=O)(=O)C(F)(F)F)C(F)(F)F + CC[n+]1ccn(C)c1.N#C[N-]C#N + O=S(=O)([N-]S(=O)(=O)C(F)(F)F)C(F)(F)F.[Li+]
100 kPa, x1 = 0.1609, x2 = 0.7379
Details | electrical conductivity [S/m]
298 K | 0.637
303 K | 0.742
313 K | 0.987
323 K | 1.28
333 K | 1.64
343 K | 2

CCCCc1n(S(=O)(=O)O)cc[n+]1S(=O)(=O)O.O=C([O-])C(F)(F)F + CO
electrical conductivity [S/m], 101 kPa
Details | x1 = 0.0104 | x1 = 0.0205 | x1 = 0.02551
298.15 K | 1.59 | 2.16 | –
308.15 K | – | – | 2.28

OCC(F)(F)F + CCCC[n+]1ccn(C)c1.F[P-](F)(F)(F)(F)F
viscosity [mPa·s], 101 kPa
Details | x1 = 0.4632 | x1 = 0.5646 | x1 = 0.7299 | x1 = 0.8308 | x1 = 0.9417 | x1 = 1
278.15 K | 51.3 | 27.28 | 10.69 | 6.23 | 3.8 | 3.28
283.15 K | 40.66 | 22.32 | 8.93 | 5.29 | 3.26 | 2.81
288.15 K | 32.71 | 18.39 | 7.58 | 4.56 | 2.84 | 2.42
293.15 K | 26.74 | 15.36 | 6.51 | 3.97 | 2.49 | 2.11
298.15 K | 22.17 | 13 | 5.65 | 3.49 | 2.21 | 1.84
303.15 K | 18.63 | 11.13 | 4.95 | 3.09 | 1.96 | 1.62
308.15 K | 15.84 | 9.64 | 4.38 | 2.76 | 1.76 | 1.43
313.15 K | 13.61 | 8.42 | 3.9 | 2.49 | 1.57 | 1.27
318.15 K | 11.81 | 7.42 | 3.49 | 2.25 | 1.41 | 1.13
323.15 K | 10.34 | 6.59 | 3.15 | 2.05 | 1.28 | 1.02
328.15 K | 9.12 | 5.89 | 2.85 | 1.88 | 1.18 | 0.925
333.15 K | 8.1 | 5.3 | 2.62 | 1.73 | 1.07 | 0.824

CCCC[n+]1ccn(C)c1.N#C[N-]C#N + OCC(O)CO + O
viscosity [mPa·s], 101 kPa
Details | x2 = 0.00317, x3 = 0.9588 | x2 = 0.005245, x3 = 0.8687 | x2 = 0.006424, x3 = 0.955 | x2 = 0.009764, x3 = 0.9511 | x2 = 0.01072, x3 = 0.8605 | x2 = 0.0132, x3 = 0.9472 | x2 = 0.01645, x3 = 0.8519 | x2 = 0.02243, x3 = 0.8428
313.15 K | 1.38 | 1.68 | 1.46 | 1.53 | 1.72 | 1.59 | 1.78 | 1.81
333.15 K | 1.25 | 1.33 | 1.29 | 1.34 | 1.37 | 1.39 | 1.41 | 1.43
353.15 K | 1.03 | 1.15 | 1.03 | 1.07 | 1.17 | 1.08 | 1.22 | 1.34

CCCO + O + CCCCCCCCCCCCOS(=O)(=O)[O-].[Na+]
298 K, 100 kPa, frequency 0.001 MHz
Details | electrical conductivity [S/m]
x1 = 0.01544, x3 = 0 | 0.00015
x1 = 0.02615, x2 = 0.9739 | 0.00015
x1 = 0.04738, x2 = 0.9526 | 0.00011
x1 = 0.07176, x2 = 0.9282 | 0.00012
x1 = 0.1087, x2 = 0.8913 | 0.00014

CCCC[n+]1ccn(C)c1.N#C[S-] + CCCC[n+]1ccn(C)c1.O=S(=O)([N-]S(=O)(=O)C(F)(F)F)C(F)(F)F
100 kPa
Details | viscosity [mPa·s]
283.15 K, x2 = 0.25 | 133.5
288.15 K, x2 = 0 | 104.5

NCC(=O)O + CCCCCCCCCCCCCCCC[n+]1ccccc1.[Cl-] + O
308.15 K, 101 kPa
Details | electrical conductivity [S/m]
x1 = 2.018e-05, x2 = 0 | 6.2e-05
x1 = 0.0002, x2 = 0 | 0.000171
x1 = 0.0003639, x2 = 0 | 0.000413
x1 = 0.0009182, x2 = 0 | 0.00011
x1 = 0.001802, x2 = 0 | 0.000292

CCCCCCCCCCCC[n+]1ccn(C)c1.[Br-] + O
298.15 K, 100 kPa, frequency 0.001 MHz
Details | electrical conductivity [S/m]
x1 = 3.604e-05 | 0.018
x1 = 7.207e-05 | 0.036
x1 = 9.009e-05 | 0.045
x1 = 0.0001081 | 0.054
x1 = 0.0001261 | 0.065
x1 = 0.0001441 | 0.072
x1 = 0.0001622 | 0.081
x1 = 0.0001802 | 0.089
x1 = 0.0002522 | 0.101
x1 = 0.0003242 | 0.111

CCCCCCCO + CCCC[n+]1ccn(C)c1.O=S(=O)([N-]S(=O)(=O)C(F)(F)F)C(F)(F)F
298 K, 100 kPa
Details | viscosity [mPa·s]
x2 = 0 | 5.956
x2 = 0.7975 | 33.43
x2 = 0.9013 | 40.9

C[C@H](N)C(=O)[O-].C[N+](C)(C)CCO + CCCO
100 kPa
Details | viscosity [mPa·s]
287.96 K, x1 = 0.0997 | 7.8
287.99 K, x1 = 0.2007 | 22.8
288.02 K, x1 = 0.3915 | 119
288.03 K, x1 = 0.6939 | 910
288.04 K, x1 = 0.6047 | 540
288.05 K, x1 = 0.7915 | 1505
288.06 K, x1 = 0.506 | 267
288.07 K, x1 = 0.9049 | 2669
288.08 K, x1 = 0.2998 | 53
288.1 K, x1 = 1 | 5100
289.23 K, x1 = 0.0997 | 7.7
289.24 K, x1 = 0.2007 | 22.2
289.26 K, x1 = 0.3915 | 114
289.28 K, x1 = 0.6939 | 850
289.29 K, x1 = 0.6047 | 510
289.3 K, x1 = 0.7915 | 1387
289.31 K, x1 = 0.506 | 251
289.31 K, x1 = 0.9049 | 2464
289.32 K, x1 = 0.2998 | 51
289.96 K, x1 = 1 | 3700
290.21 K, x1 = 1 | 4300
290.49 K, x1 = 0.0997 | 7.5
290.5 K, x1 = 0.2007 | 21.3
290.51 K, x1 = 0.3915 | 107
290.52 K, x1 = 0.6047 | 470
290.52 K, x1 = 0.6939 | 770
290.53 K, x1 = 0.506 | 231
290.53 K, x1 = 0.7915 | 1251
290.53 K, x1 = 0.9049 | 2210
290.54 K, x1 = 0.2998 | 49
291.71 K, x1 = 0.0997 | 7.2
291.72 K, x1 = 0.2007 | 20.4
291.72 K, x1 = 0.3915 | 99
291.73 K, x1 = 0.2998 | 46
291.73 K, x1 = 0.506 | 214
291.73 K, x1 = 0.6047 | 430
291.73 K, x1 = 0.6939 | 700
291.73 K, x1 = 0.7915 | 1121
291.73 K, x1 = 0.9049 | 1968
292.02 K, x1 = 1 | 3052
292.32 K, x1 = 1 | 3520
292.9 K, x1 = 0.0997 | 6.9
292.91 K, x1 = 0.2007 | 19.6
292.91 K, x1 = 0.2998 | 43
292.91 K, x1 = 0.3915 | 93
292.91 K, x1 = 0.6047 | 391
292.92 K, x1 = 0.506 | 199
292.92 K, x1 = 0.6939 | 640
292.92 K, x1 = 0.7915 | 1017
292.92 K, x1 = 0.9049 | 1771
294.08 K, x1 = 1 | 2544
294.09 K, x1 = 0.0997 | 6.7
294.09 K, x1 = 0.2007 | 18.8
294.09 K, x1 = 0.2998 | 41
294.09 K, x1 = 0.3915 | 86
294.09 K, x1 = 0.506 | 185
294.09 K, x1 = 0.6047 | 358
294.09 K, x1 = 0.9049 | 1589
294.1 K, x1 = 0.6939 | 580
294.1 K, x1 = 0.7915 | 920
294.41 K, x1 = 1 | 2896
295.27 K, x1 = 0.0997 | 6.5
295.27 K, x1 = 0.2007 | 18
295.27 K, x1 = 0.2998 | 38.9
295.27 K, x1 = 0.3915 | 81
295.27 K, x1 = 0.506 | 172
295.27 K, x1 = 0.6047 | 329
295.27 K, x1 = 0.6939 | 530
295.27 K, x1 = 0.7915 | 840
295.27 K, x1 = 0.9049 | 1438
296.14 K, x1 = 1 | 2140
296.45 K, x1 = 0.0997 | 6.3
296.45 K, x1 = 0.2007 | 17.3
296.45 K, x1 = 0.2998 | 36.9
296.45 K, x1 = 0.3915 | 76
296.45 K, x1 = 0.506 | 160
296.45 K, x1 = 0.6047 | 302
296.45 K, x1 = 0.6939 | 490
296.45 K, x1 = 0.7915 | 760
296.45 K, x1 = 0.9049 | 1298
296.48 K, x1 = 1 | 2402
297.63 K, x1 = 0.0997 | 6.1
297.63 K, x1 = 0.2007 | 16.6
297.63 K, x1 = 0.2998 | 35
297.63 K, x1 = 0.3915 | 71
297.63 K, x1 = 0.506 | 149
297.63 K, x1 = 0.6047 | 278
297.63 K, x1 = 0.6939 | 450
297.63 K, x1 = 0.7915 | 700
297.63 K, x1 = 0.9049 | 1174
298.2 K, x1 = 1 | 1806
298.54 K, x1 = 1 | 2000
298.8 K, x1 = 0.0997 | 6
298.8 K, x1 = 0.2007 | 16
298.8 K, x1 = 0.2998 | 33.4
298.8 K, x1 = 0.3915 | 67
298.8 K, x1 = 0.6047 | 257
298.81 K, x1 = 0.506 | 140
298.81 K, x1 = 0.6939 | 410
298.81 K, x1 = 0.7915 | 640
